For 13 molecules, IC50 results are on record in patent US12252488B2 (Nimbus Saturn, Inc., priority 2021, dated 2025).

The structures appear in SMILES notation.

T1 sequence (Q92918 whole entry): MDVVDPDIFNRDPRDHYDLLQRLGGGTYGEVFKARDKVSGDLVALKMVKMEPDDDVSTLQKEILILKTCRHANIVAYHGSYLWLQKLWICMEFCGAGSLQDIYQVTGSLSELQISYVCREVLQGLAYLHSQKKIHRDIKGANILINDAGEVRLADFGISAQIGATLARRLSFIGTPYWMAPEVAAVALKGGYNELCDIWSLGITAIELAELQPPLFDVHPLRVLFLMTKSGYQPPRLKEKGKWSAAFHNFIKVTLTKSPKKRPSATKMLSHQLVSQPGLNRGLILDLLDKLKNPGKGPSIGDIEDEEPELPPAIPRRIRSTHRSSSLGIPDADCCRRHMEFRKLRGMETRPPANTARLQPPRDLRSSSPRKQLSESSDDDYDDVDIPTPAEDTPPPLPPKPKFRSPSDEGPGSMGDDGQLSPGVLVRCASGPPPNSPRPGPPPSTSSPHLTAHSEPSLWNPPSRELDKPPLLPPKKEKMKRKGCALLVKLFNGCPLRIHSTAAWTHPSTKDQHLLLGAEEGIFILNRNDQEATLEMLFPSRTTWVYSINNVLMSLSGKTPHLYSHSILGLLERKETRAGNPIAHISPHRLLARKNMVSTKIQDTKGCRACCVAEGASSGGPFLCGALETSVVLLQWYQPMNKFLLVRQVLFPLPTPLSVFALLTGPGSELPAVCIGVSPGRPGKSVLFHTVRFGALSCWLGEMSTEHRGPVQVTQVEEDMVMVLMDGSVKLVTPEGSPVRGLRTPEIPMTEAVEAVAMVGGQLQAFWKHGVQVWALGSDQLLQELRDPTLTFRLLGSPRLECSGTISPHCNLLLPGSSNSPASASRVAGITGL

The test addresses T1, HPK1 (Homo sapiens, UniProt Q92918).
T1 construct: purchased Invitrogen
In words: HPK1 biochemical enzyme assay (microfluidic mobility shift assay). The conditions noted are these: 1000 uM (1 mM) ATP; Caliper mobility shift; 1.5 nM HPK1; 30 min preincubation; read-out: HPK1 1000UMATP caliper IC50. The method, boiled down:
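Microfluidic mobility-shift readout with 1.5 nM HPK1 in pH 7.4 buffer; compounds (ten-point curves, top 3 μM final) preincubated 30 min with enzyme/substrate. Reaction started with 1 mM ATP and 1 μM substrate plus 5 mM MgCl2, run 60 min at RT. IC50 values binned into activity classes.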
As for `O=c1[nH]ccc2nc(C3CC4CCC3C4)cc(Nc3ccc(N4CCC(O)CC4)cn3)c12` (stereo not shown) [I-40, 4-[[5-(4-hydroxy-1-piperidyl)-2-pyridyl]amino]-2-norbornan-2-yl-6H-1,6-naphthyridin-5-one], the IC50 was 100 to 1000 nM.

On to `COc1cc(-c2cc(Nc3ccc(N4CCC(O)CC4)cn3)c3c(=O)[nH]ccc3n2)c(F)cc1C(=O)N1CCCC1` [I-206, 2-[2-fluoro-5-methoxy-4-(pyrrolidine-1-carbonyl)phenyl]-4-[[5-(4-hydroxy-1-piperidyl)-2-pyridyl]amino]-6H-naphthyridin-5-one], for which the IC50 was no more than 100 nM.

Take `O=c1[nH]ccc2nc(-c3c(F)ccc4c3CCNC4)cc(Nc3ccc(N4CCC(O)CC4)cn3)c12` [I-220, 2-(6-fluoro-1,2,3,4-tetrahydro-isoquinolin-5-yl)-4-[[5-(4-hydroxy-1-piperidyl)-2-pyridyl]amino]-6H-1,6-naphthyridin-5-one]: the IC50 was no more than 100 nM.

Regarding `O=c1[nH]ccc2nc(-c3cc4[nH]ccc4cc3F)cc(Nc3ccc(N4CCC(O)CC4)cn3)c12` [I-118, 2-(5-fluoro-1H-indol-6-yl)-4-[[5-(4-hydroxy-1-piperidyl)-2-pyridyl]amino]-6H-1,6-naphthyridin-5-one], the IC50 was 100 to 1000 nM.

Take `O=C(Nc1ccc(-c2cc(Nc3ccc(N4CCOCC4)cn3)c3c(=O)[nH]ccc3n2)c(F)c1)C1CCCCC1` [I-159, N-[3-fluoro-4-[4-[(5-morpholino-2-pyridyl)amino]-5-oxo-6H-1,6-naphthyridin-2-yl]phenyl] cyclohexane carboxamide]: the IC50 was no more than 100 nM.

With `CC(C)c1cc(Nc2ccc(N3CCNCC3)cn2)c2c(=O)[nH]ccc2n1` [I-21, 2-isopropyl-4-[(5-piperazin-1-yl-2-pyridyl)amino]-6H-1,6-naphthyridin-5-one], the IC50 is 100 to 1000 nM.

On to `Cc1cc(F)c(-c2cc(Nc3ccc(N4CCC(O)CC4)cn3)c3c(=O)[nH]ccc3n2)cc1C(=O)N1CCCCC1` [I-167, 2-[2-fluoro-4-methyl-5-(piperidine-1-carbonyl)phenyl]-4-[[5-(4-hydroxy-1-piperidyl)-2-pyridyl]amino]-6H-1,6-naphthyridin-5-one], for which the IC50 is no more than 100 nM.

In the case of `O=C(c1ccc(F)c(-c2cc(Nc3ccc(N4CCC(O)CC4)cn3)c3c(=O)[nH]ccc3n2)c1)N1CCC1` [I-95, 2-[5-(azetidine-1-carbonyl)-2-fluoro-phenyl]-4-[[5-(4-hydroxy-1-piperidyl)-2-pyridyl]amino]-6H-1,6-naphthyridin-5-one], the IC50 is 100 to 1000 nM.

As for `COc1cc(F)c(-c2cc(Nc3ccc(N4CCC(O)CC4)cn3)c3c(=O)[nH]ccc3n2)cc1CN1CCCCC1` [I-202, 2-[2-fluoro-4-methoxy-5-(1-piperidyl-methyl)phenyl]-4-[[5-(4-hydroxy-1-piperidyl)-1-2-pyridyl]amino]-6H-1,6-naphthyridin 5-one], the IC50 was no more than 100 nM.

In the case of `CCNC(=O)C(C)(C)c1ccc(Nc2cc(-c3c(F)cccc3F)nc3cc[nH]c(=O)c23)nc1` [I-46, 2-[6-[[2-(2,6-difluoro-phenyl)-5-oxo-6H-1,6-naphthyridin-4-yl]amino]-3-pyridyl]-N-ethyl-2-methyl-propanamide], the concentration for half-maximal inhibition (IC50) lay within 100 to 1000 nM.

For `COc1cccc(F)c1-c1cc(Nc2ccc(N3CCC(O)CC3)cn2)c2c(=O)[nH]ccc2n1` [I-185, 2-(2-fluoro-6-methoxy-phenyl)-4-[[5-(4-hydroxy-1-piperidyl)-2-pyridyl]amino]-6H-1,6-naphthyridin-5-one], the IC50 lay within 100 to 1000 nM.

For the molecule `COc1cc(-c2cc(Nc3cccc(N4CCNCC4)n3)c3c(=O)[nH]ccc3n2)c(F)cc1C(=O)N1CCCCC1` [I-234, 2-[2-fluoro-5-methoxy-4-(piperidine-1-carbonyl)phenyl]-4-[(6-piperazin-1-yl-2-pyridyl)amino]-6H-1,6-naphthyridin-5-one], the IC50 was no more than 100 nM.

Consider `COc1cc(-c2cc(Nc3ccc(C#N)cn3)c3c(=O)[nH]ccc3n2)c(F)cc1C(=O)N1CCCCC1` [I-242, 6-[[2-[2-fluoro-5-methoxy-4-(piperidine-1-carbonyl)phenyl]-5-oxo-6H-1,6-naphthyridin-4-yl]amino] pyridine-3-carbonitrile], for which the IC50 is 100 to 1000 nM.

One may read the IC50 as the midpoint of a concentration-inhibition curve.
